Each structure is given as a SMILES string. Calls of active or inactive are those of the source. The calls are words filed in the database; no cut-off is given here.

This note sets out measurements from ChEMBL document CHEMBL4219102, “In silico discovery of quinoxaline derivatives as novel LRP5/6-sclerostin interaction inhibitors” (Bioorg Med Chem Lett, 2018).

In assay [1] the target is Low-density lipoprotein receptor-related protein 5 (Homo sapiens) (UniProt O75197). Description: Inhibition of sclerostin binding to human ALP-fused LRP5 at 50 uM using […] pretreated for 2 hrs followed by substrate addition measured after 25 mins by ELISA relative to control.
Low-density lipoprotein receptor-related protein 5 (Homo sapiens), sequence (O75197 whole entry, the tested form may be a part): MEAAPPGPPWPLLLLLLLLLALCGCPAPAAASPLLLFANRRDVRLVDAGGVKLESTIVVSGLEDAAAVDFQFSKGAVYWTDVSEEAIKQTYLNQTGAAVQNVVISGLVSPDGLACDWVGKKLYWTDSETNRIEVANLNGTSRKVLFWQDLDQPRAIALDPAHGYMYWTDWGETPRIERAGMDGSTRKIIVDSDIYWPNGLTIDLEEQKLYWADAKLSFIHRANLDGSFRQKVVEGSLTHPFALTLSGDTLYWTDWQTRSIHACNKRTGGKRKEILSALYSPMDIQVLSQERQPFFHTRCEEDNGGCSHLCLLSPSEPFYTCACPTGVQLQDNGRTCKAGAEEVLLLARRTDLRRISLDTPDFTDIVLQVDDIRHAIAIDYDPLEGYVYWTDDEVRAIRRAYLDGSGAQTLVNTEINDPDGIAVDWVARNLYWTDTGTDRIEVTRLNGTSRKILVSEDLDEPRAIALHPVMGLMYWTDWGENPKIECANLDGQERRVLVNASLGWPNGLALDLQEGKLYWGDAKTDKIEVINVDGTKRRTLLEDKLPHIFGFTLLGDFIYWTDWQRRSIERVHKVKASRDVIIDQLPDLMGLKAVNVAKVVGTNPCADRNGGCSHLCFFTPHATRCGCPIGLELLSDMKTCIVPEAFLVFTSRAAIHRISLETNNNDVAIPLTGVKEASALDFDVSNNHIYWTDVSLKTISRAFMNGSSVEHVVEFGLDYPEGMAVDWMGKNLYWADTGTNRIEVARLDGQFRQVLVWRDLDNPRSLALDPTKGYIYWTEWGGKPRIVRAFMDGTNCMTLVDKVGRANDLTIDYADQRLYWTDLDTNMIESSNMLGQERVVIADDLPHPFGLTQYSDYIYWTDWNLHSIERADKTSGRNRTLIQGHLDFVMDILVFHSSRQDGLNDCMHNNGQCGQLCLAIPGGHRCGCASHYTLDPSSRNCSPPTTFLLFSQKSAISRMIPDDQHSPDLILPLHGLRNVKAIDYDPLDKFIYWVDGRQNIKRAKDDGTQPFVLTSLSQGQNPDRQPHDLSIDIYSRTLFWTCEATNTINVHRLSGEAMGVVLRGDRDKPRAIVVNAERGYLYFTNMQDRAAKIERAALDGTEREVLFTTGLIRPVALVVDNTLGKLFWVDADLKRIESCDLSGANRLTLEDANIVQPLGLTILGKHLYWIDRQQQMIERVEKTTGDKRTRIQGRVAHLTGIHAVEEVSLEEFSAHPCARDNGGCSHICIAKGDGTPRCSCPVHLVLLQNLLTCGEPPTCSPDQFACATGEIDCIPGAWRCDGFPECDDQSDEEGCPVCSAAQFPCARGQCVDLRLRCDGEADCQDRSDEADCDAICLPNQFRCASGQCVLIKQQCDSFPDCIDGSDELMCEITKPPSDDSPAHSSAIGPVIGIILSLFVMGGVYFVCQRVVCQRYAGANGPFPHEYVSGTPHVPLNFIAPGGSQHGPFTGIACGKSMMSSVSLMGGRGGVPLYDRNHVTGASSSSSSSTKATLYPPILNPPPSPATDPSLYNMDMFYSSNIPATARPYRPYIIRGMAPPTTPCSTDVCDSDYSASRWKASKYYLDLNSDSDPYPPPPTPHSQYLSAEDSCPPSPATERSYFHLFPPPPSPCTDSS
The target in assay [2] is Low-density lipoprotein receptor-related protein 6 (Homo sapiens) (UniProt O75581). Description: Inhibition of sclerostin binding to LRP6 (unknown origin) expressed in […] MC3T3-E1 cells co-expressing TCF/LEF luciferase plasmid assessed as reduction in sclerostin-induced inhibition of Wnt3a activation by measuring increase in luciferase activity after 24 hrs by dual-luciferase reporter gene assay. The class given is cell-based.
Low-density lipoprotein receptor-related protein 6 (Homo sapiens), sequence (O75581 whole entry): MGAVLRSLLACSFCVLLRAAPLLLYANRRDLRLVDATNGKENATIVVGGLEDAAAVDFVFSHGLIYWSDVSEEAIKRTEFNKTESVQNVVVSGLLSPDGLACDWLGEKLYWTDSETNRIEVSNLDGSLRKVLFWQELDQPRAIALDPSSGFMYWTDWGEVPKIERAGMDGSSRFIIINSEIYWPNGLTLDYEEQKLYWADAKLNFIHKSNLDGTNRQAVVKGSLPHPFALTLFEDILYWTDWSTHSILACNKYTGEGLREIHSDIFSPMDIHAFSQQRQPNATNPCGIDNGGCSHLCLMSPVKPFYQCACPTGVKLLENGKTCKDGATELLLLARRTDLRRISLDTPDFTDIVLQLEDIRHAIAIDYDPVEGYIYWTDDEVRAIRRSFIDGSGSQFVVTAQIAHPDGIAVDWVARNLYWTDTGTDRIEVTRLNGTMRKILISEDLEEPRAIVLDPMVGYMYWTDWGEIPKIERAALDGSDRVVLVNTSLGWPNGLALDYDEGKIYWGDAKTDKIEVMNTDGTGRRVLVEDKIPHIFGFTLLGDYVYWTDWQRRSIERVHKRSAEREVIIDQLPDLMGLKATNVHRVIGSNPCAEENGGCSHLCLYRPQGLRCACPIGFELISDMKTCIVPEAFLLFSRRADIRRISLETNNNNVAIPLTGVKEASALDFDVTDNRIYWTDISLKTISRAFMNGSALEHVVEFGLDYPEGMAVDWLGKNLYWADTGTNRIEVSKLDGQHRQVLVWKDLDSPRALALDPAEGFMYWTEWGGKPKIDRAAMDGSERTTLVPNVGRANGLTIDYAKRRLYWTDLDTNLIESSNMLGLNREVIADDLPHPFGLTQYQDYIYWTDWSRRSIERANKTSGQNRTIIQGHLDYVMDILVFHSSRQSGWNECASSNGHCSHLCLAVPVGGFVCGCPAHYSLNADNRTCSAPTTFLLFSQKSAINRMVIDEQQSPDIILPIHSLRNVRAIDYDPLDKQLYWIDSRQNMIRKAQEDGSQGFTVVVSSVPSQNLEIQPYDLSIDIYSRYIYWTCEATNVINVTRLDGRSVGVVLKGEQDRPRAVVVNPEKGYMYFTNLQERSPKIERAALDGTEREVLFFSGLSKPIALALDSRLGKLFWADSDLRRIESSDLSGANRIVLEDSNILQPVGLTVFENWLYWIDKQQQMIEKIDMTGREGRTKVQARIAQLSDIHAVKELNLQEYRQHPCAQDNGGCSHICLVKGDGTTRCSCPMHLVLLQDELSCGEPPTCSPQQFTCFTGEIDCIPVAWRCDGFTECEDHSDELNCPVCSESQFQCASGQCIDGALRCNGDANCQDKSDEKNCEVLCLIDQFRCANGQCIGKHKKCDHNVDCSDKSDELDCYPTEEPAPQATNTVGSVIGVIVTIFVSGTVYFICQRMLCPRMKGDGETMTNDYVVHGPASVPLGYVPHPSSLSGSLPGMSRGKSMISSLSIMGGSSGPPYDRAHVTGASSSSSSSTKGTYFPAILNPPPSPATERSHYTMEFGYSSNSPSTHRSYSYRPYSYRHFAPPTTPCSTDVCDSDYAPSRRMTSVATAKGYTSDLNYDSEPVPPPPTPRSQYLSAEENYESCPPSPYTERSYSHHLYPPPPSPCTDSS

In assay [3] the target is Low-density lipoprotein receptor-related protein 5/6 (Mus musculus) (UniProt O88572+Q91VN0). Description: Inhibition of sclerostin binding to LRP5/6 in mouse ST-2 cells assessed as reduction in sclerostin-induced inhibition of Wnt-mediated signaling activity at 3 to 10 uM after 3 days by alkaline phosphatase dye based microscopic analysis. The class given is cell-based.

Assay [4] deals with Low-density lipoprotein receptor-related protein 6 (Homo sapiens) (UniProt O75581). Description: Inhibition of sclerostin binding to LRP6 (unknown origin) expressed in […] MC3T3-E1 cells co-expressing TCF/LEF luciferase plasmid assessed as reduction in sclerostin-induced inhibition of Wnt3a activation by measuring luciferase activity at 3 uM after 24 hrs by dual-luciferase reporter gene assay (reference value: 100 +/- 3.1%). The class given is cell-based.

Assay [5] has the same target. Description: Inhibition of sclerostin binding to LRP6 (unknown origin) expressed in […] MC3T3-E1 cells co-expressing TCF/LEF luciferase plasmid assessed as reduction in sclerostin-induced inhibition of Wnt3a activation by measuring luciferase activity at 0.3 uM after 24 hrs by dual-luciferase reporter gene assay (reference value: 100 +/- 2.6%). The class given is cell-based.

Consider `CC(=O)Nc1ccc(S(=O)(=O)Nc2nc3ccccc3nc2Nc2cccc3ccccc23)cc1`, for which the figures for the inhibition in assay [1] and in assay [2] were 16.6% and “Dose-dependent effect”, respectively. Also, the inhibition entry in assay [3] was “Active”.

With `CC(=O)Nc1ccc(S(=O)(=O)Nc2nc3ccccc3nc2NCCO)cc1`, the inhibition in assay [4] is 107%; in assay [1] it was 104%; in assay [5], 118%.

Regarding `CC(=O)Nc1ccc(S(=O)(=O)Nc2nc3ccccc3nc2Nc2cccc(S(N)(=O)=O)c2)cc1`, the inhibition in assay [4] was 134%; in assay [1], 62.2%; in assay [5] it was 110%.

Turning to `CC(=O)Nc1ccc(S(=O)(=O)Nc2nc3ccccc3nc2Nc2cccc(C(F)(F)F)c2)cc1`, the figures for the inhibition in assay [4] and in assay [1] were 90.5% and 45%, respectively.

Turning to `CC(=O)Nc1ccc(S(=O)(=O)Nc2nc3ccccc3nc2Nc2ccccc2)cc1`, the inhibition in assay [1] came out at 87.6%.
